In general, half-life refers to the time in which the quantity being followed falls by half. In general, ED50 refers to the dose at which the effect has come halfway, by size or by number of responders.

The source of these data is patent US4002530A, “6-Aminopenicillanic acid derivative” (Recherche et Industrie Therapeutiques (R.I.T.), priority 1975, dated 1977).

≈ marks a conversion by molar mass, not a printed value. Structures can show the parent of a compound that is named as a salt. Where two headings read alike, the source gives them in different places. Some results are limits rather than exact numbers.

In data set [1] the test system is mice. As to conditions: mouse, in vivo, iv, 500 mg/kg.
The nature of data set [2]: solubility. Type of data set: physicochemical.
In data set [3] the test system is Gram-positive and Gram-negative bacteria. Briefly: inhibitory activity against growth of bacteria. Type of data set: cell-based. As to conditions: for inhibitory activity against the growth of bacteria: Gram-positive and Gram-negative bacteria; for antibacterial activity relative to another RIT 2214 form: compared with the RIT 2214 form named in the sentence. The method, then: (§1) Antibiotic RIT D-2214 has been tested in form of the mono ammonium salt in position 3 of the penam nucleus and, for that reason, is herein below charcterized as this monoammonium salt.
(§2) The inhibitory levels were determined by the broth dilution test. A series of tubes containing varied concentrations of the monoammonium salt of antibiotic RIT D-2214 were inoculated with the test organism to determine the minimum concentration of the ammonium salt of antibiotic RIT D-2214 in mcg/ml. in the broth substrate which inhibited organism growth for a period of about twenty hours at 35° C.

Data set [4] can be described thus: physchem. It is filed as physicochemical. The settings on record: reconstituted gastric juice, pH 1.3. From the text: Antibiotic RIT D-2214 can be colorimetrically assayed by the classical hydroxylamine method of penicillin assay. […] Recoveries were estimated according to the hydroxylamine assay method.
The subject of data set [5] is Shigella sonnei. Briefly: broth dilution test, minimum inhibitory concentration. It is filed as cell-based. The settings on record: about 20 hours at 35° C, tested as monoammonium salt. The method, then:
as §1, §2
Background: Broth dilution looks for growth in wells or tubes with falling amounts of substance.

In data set [6] the test system is Staphylococcus aureus. The description is as above. Type of data set: cell-based. As to conditions: about 20 hours at 35° C, tested as monoammonium salt. Here is the method: as §1, §2
The subject of data set [7] is Staphylococcus aureus Pen.resist. The data set is described as above. It is filed as cell-based. The settings on record: penicillin resistant, about 20 hours at 35° C, tested as monoammonium salt.
The test system of data set [8] is Bacillus subtilis. The data set is described as above. Type of data set: cell-based. The settings on record: about 20 hours at 35° C, tested as monoammonium salt.
In data set [9] the test system is Escherichia coli. Described as above. The settings on record: broth dilution, about 20 hours at 35° C, tested as monoammonium salt, read-out: Minimum Inhibitory concentration. It is filed as cell-based.
In data set [10] the test system is E. coli Pen. resistant. The description is as above. As to conditions: Escherichia coli, penicillin resistant, about 20 hours at 35° C, tested as monoammonium salt. It is filed as cell-based.
Data set [11] has as its system Aerobacter aerogenes. Described as above. As to conditions: Klebsiella aerogenes; broth dilution, about 20 hours at 35° C; tested as monoammonium salt; read-out: Minimum Inhibitory concentration. It is filed as cell-based.
The subject of data set [12] is Klebsiella pneumoniae. The description is as above. Type of data set: cell-based. The settings on record: about 20 hours at 35° C, tested as monoammonium salt.
Data set [13] relates to Salmonella paratyphi. The data set is described as above. Type of data set: cell-based. As to conditions: Salmonella enterica, 20 h, read-out: Minimum Inhibitory concentration.
For data set [14], the system named is Proteus mirabilis. Described as above. It is filed as cell-based. The settings on record: broth dilution, about 20 hours at 35° C, tested as monoammonium salt, read-out: Minimum Inhibitory concentration.
In data set [15] the test system is Proteus morganii. The data set is described as above. Type of data set: cell-based. As to conditions: Morganella morganii, about 20 hours at 35° C, tested as monoammonium salt.
Data set [16] has as its system Pseudomonas aeruginosa. The description is as above. As to conditions: about 20 hours at 35° C, tested as monoammonium salt. It is filed as cell-based.
For data set [17], the system named is Corynebacterium xerosis. The description is as above. It is filed as cell-based. The settings on record: about 20 hours at 35° C, tested as monoammonium salt.
Data set [18] relates to Alcaligenes faecalis. The data set is described as above. As to conditions: about 20 hours at 35° C, tested as monoammonium salt. Type of data set: cell-based.
Data set [19] deals with Salmonella meleagridis. The description is as above. The settings on record: about 20 hours at 35° C, tested as monoammonium salt. Type of data set: cell-based.
Data set [20] relates to Salmonella typhi. Described as above. It is filed as cell-based. As to conditions: Salmonella enterica, 20 h, read-out: Minimum Inhibitory concentration.
Data set [21] concerns Salmonella typhimurium. Described as above. It is filed as cell-based. The settings on record: Salmonella enterica, about 20 hours at 35° C, tested as monoammonium salt.
For data set [22], the system named is Salmonella panama. Described as above. Type of data set: cell-based. As to conditions: Salmonella enterica, about 20 hours at 35° C, tested as monoammonium salt.
Data set [23] concerns Salmonella anatum. Described as above. Type of data set: cell-based. As to conditions: Salmonella enterica, about 20 hours at 35° C, tested as monoammonium salt.
Data set [24] deals with Brucella abortus. In words: microbe, parasite or virus in culture. As to conditions: 20 h, read-out: Minimum Inhibitory concentration. It is filed as cell-based.
The test system of data set [25] is Bordetella bronchiseptica. Briefly: broth dilution test, minimum inhibitory concentration. As to conditions: about 20 hours at 35° C, tested as monoammonium salt. It is filed as cell-based.
Data set [26] deals with Escherichia coli 47. In words: mice protection test. It is filed as in vivo. The settings on record: Escherichia coli, 47, sc, 72 h; s.c., one hour after intravenous infection, observed 3 days; read-out: ED50 (total dose required to protect 50% of the infected mice). The method, then:
(§3) Comparative trials with ampicillin were performed in vivo according to the usual mice protection test procedure. The test compound was administered in graded dilutions to mice either subcutaneously (s.c.) in water or orally (or.) in combination with calcium carbonate one hour after intravenous infection with uniformly lethal doses of the test organism.

The subject of data set [27] is Escherichia coli 9. In words: mice protection test. Type of data set: in vivo. As to conditions: Escherichia coli, 9, sc, 72 h; s.c., one hour after intravenous infection, observed 3 days; read-out: ED50 (total dose required to protect 50% of the infected mice). The method, then: as §3
Data set [28] concerns Klebsiella pneumoniae SK&F 4200. Briefly: mice protection test. It is filed as in vivo. As to conditions: 72 h, one hour after intravenous infection, observed 3 days, read-out: ED50 (total dose required to protect 50% of the infected mice). The method, then: as §3
Data set [29] relates to Proteus mirabilis 11. Briefly: mice protection test. Type of data set: in vivo. The settings on record: Proteus mirabilis, 11, sc, 72 h; s.c., one hour after intravenous infection, observed 3 days; read-out: ED50 (total dose required to protect 50% of the infected mice). Here is the method: as §3
For data set [30], the system named is Salmonella brandebourg 22. In words: mice protection test. The settings on record: Salmonella, 22, sc, 72 h; s.c., one hour after intravenous infection, observed 3 days; read-out: ED50 (total dose required to protect 50% of the infected mice). Type of data set: in vivo. Here is the method:
as §3

Data set [31] concerns Salmonella enteritidis 24. Briefly: mice protection test. Type of data set: in vivo. The settings on record: Salmonella enterica, sc, 72 h, s.c., one hour after intravenous infection, observed 3 days, read-out: ED50 (total dose required to protect 50% of the infected mice). The method, then: as §3
In data set [32] the test system is Salmonella panama 20. In words: mice protection test. It is filed as in vivo. As to conditions: Salmonella enterica, 20, sc, 72 h; s.c., one hour after intravenous infection, observed 3 days; read-out: ED50 (total dose required to protect 50% of the infected mice). Here is the method: as §3
The test system of data set [33] is Shigella flexneri 25. Briefly: mice protection test. Type of data set: in vivo. The settings on record: Shigella flexneri, 25, sc, 72 h; s.c., one hour after intravenous infection, observed 3 days; read-out: ED50 (total dose required to protect 50% of the infected mice). Here is the method:
as §3

The subject of data set [34] is Staphylococcus aureus 663. In words: mice protection test. Type of data set: in vivo. The settings on record: Staphylococcus aureus, 663, sc, 72 h; s.c., one hour after intravenous infection, observed 3 days; read-out: ED50 (total dose required to protect 50% of the infected mice). Here is the method: as §3
Data set [35] relates to Vibrio parahaemoliticus 194. In words: mice protection test. It is filed as in vivo. As to conditions: Vibrio, 194, 72 h; oral with calcium carbonate, one hour after intravenous infection, observed 3 days; read-out: ED50 (total dose required to protect 50% of the infected mice). The method, then:
as §3

Data set [36] is described as follows: in vivo. Set-up: species or system mice. As to conditions: mouse, sc, 20 mg/kg. The source says:
(§4) Plasma samples were adequately diluted with sterile water and assayed according to the usual agar diffusion method, using Bacillus subtilis ATCC 6633 as the test organism.

The nature of data set [37]: in vivo. Set-up: species or system rats. As to conditions: rat, sc, 20 mg/kg.
Source text: as §4

The nature of data set [38]: in vivo. More on the design: species or system dogs. As to conditions: dog, sc, 20 mg/kg.
Source text: as §4

For `CC1(C)S[C@@H]2[C@H](NC(=O)CSC[C@@H](N)C(=O)O)C(=O)N2[C@H]1C(=O)O`, in data set [1], the detectable toxicity result is given as “does not show any detectable toxicity”. Besides, the solubility in methanol entry in data set [2] (methanol) is reported as “slightly soluble in methanol”. Also, the “solubility in other organic solvents” value in data set [2] (organic solvents other than methanol) was “insoluble in other organic solvents”. Also, in data set [2] (water), the solubility in water result is reported as “very soluble in water”.

`CC1(C)S[C@@H]2[C@H](NC(=O)CSC[C@@H](N)C(=O)O)C(=O)N2[C@H]1C(=O)O` [monoammonium salt of antibiotic RIT D-2214]: the “inhibitory activity against the growth of bacteria” value in data set [3] is “strong activity”.

For `CC1(C)S[C@@H]2[C@H](NC(=O)CSC[C@H](N)C(=O)O)C(=O)N2[C@H]1C(=O)O`, in [3], the “inhibitory activity against the growth of bacteria” value was “active against Grampositive and negative bacteria”; the “antibacterial activity relative to another RIT 2214 form” value was “less than the monoammonium salt of RIT D-2214”.

Turning to `CC1(C)S[C@@H]2[C@H](NC(=O)Cc3ccccc3)C(=O)N2[C@H]1C(=O)O` [penicillin G, reference compound], the half-life in data set [4] is 0.117 h.

Take `CC1(C)S[C@@H]2[C@H](NC(=O)CSC[C@H](N)C(=O)O)C(=O)N2[C@H]1C(=O)O` [RIT L-2214]: the MIC in [5] is 80 µg/mL; in data set [6] it was 1.25 µg/mL; in data set [7], 80 µg/mL; in data set [8], 0.31 µg/mL; in [9], 40 µg/mL; in data set [10], 80 µg/mL. For the same molecule, the MIC in data set [11] is 20 µg/mL; in [12] it was 80 µg/mL; in data set [13] it was 20 µg/mL (≈ 53 µM); in data set [14], 20 µg/mL; in [15], 80 µg/mL; in data set [16], 80 µg/mL.

For the molecule `CC1(C)S[C@@H]2[C@H](NC(=O)[C@H](N)c3ccccc3)C(=O)N2[C@H]1C(=O)O` [Ampicillin, ampicillin, reference compound], the MIC in data set [17] is 0.1 µg/mL; in data set [5], 2.5 µg/mL; in [7] it was 20 µg/mL; in data set [8] it was 0.3 µg/mL; in data set [10], 80 µg/mL; in [18] it was 1.6 µg/mL. Also, the MIC amounted to 40 µg/mL in [12]; 0.6 µg/mL in [19]; 0.6 µg/mL (≈ 1.72 µM) in data set [20]; 40 µg/mL in data set [21]; 2.5 µg/mL in data set [22]; 0.6 µg/mL in data set [23]. In addition, the MIC in data set [15] is 20 µg/mL; in [24], 0.6 µg/mL (≈ 1.72 µM); in data set [25], 0.6 µg/mL; in [16], 80 µg/mL. Further, the ED50 in data set [26] came out at 23.6 mg/kg; in data set [27], 11.5 mg/kg; in [28] (oral with calcium carbonate) it was 50.4 mg/kg; in [28] (sc, s.c.), 36.7 mg/kg; in data set [29] it was 14.8 mg/kg; in [30], 36.4 mg/kg. Besides, the ED50 was 55.6 mg/kg in [31]; 22 mg/kg in [32]; > 100 mg/kg in data set [33]; < 11 mg/kg in data set [34]; 17.9 mg/kg in [35]. The concentration at 5 min was 6500 ng/mL in [36] and 7000 ng/mL in data set [37]. Moreover, the concentration at 0.25 h in data set [36] turned out to be 9000 ng/mL; in data set [37], 13000 ng/mL; in data set [38], 13000 ng/mL. Further, the concentration at 0.5 h was 3500 ng/mL in data set [36] and 18000 ng/mL in data set [38]. Moreover, the concentration at 1 h in data set [36] was found to be 1000 ng/mL; in [37], 5000 ng/mL; in data set [38], 18000 ng/mL. The values for the concentration at 2 h in data set [37] and in data set [38] were 2500 ng/mL and 9000 ng/mL, respectively. Also, the half-life in [4] came to 6.5 h.

Take `CC1(C)S[C@@H]2[C@H](NC(=O)CSCC(N)C(=O)O)C(=O)N2[C@H]1C(=O)O` (mixture of isomers) [RIT DL-2214]: the “antibacterial activity relative to another RIT 2214 form” value in data set [3] is recorded as “approximately half”.
